melting point | Structure (SMILES)
> 240 °C | Cl.c1ccc(C2CCN(CC3Cc4ccccc4C3)CC2)cc1
> 250 °C | Cl.c1ccc(C2CCN(C3Cc4ccccc4C3)CC2)cc1
> 250 °C | Cl.c1ccc(C2CCN(C3CCc4ccccc4CC3)CC2)cc1
> 250 °C | Cl.c1ccc(C2CCN(CC3CCc4ccccc4CC3)CC2)cc1
245 °C | Cc1ccccc1C1CCN(CC2CCc3ccccc3CC2)CC1.Cl
220 °C (dec.) | Cl.O=C1CC(CN2CCC(c3ccccc3)CC2)CCc2ccccc21 (racemic)
140 to 143 °C | COc1cccc2c1CCC(CN1CCC(c3ccccc3)CC1)CC2=O.Cl (racemic)
185 to 188 °C | COc1ccc2c(c1)C(=O)CC(CN1CCC(c3ccccc3)CC1)CC2.Cl (racemic)
213 to 215 °C | CO[C@@H]1C[C@H](CN2CCC(c3ccccc3)CC2)CCc2ccccc21.Cl (racemic)
220 to 222 °C | CO[C@@H]1C[C@@H](CN2CCC(c3ccccc3)CC2)CCc2ccccc21.Cl (racemic)
158 to 160 °C | Cl.Oc1ccccc1C1CCN(CC2CCc3ccccc3C(O)C2)CC1 (racemic)
238 to 240 °C | Cl.O[C@@H]1C[C@H](CN2CCC(c3cccc(F)c3)CC2)CCc2ccccc21 (racemic)
> 250 °C | Cc1ccccc1C1CCN(C[C@@H]2CCc3ccccc3[C@H](O)C2)CC1.Cl (racemic)
225 to 228 °C | Cl.O[C@@H]1C[C@H](CN2CCC(c3ccc(OCc4ccccc4)cc3)CC2)CCc2ccccc21 (racemic)
> 250 °C | Cl.O[C@@H]1C[C@H](CN2CCC(c3cccc(Br)c3)CC2)CCc2ccccc21 (racemic)
218 to 220 °C | Cl.OC1CC(CN2CCC(c3ccccc3)CC2)CCc2c(F)cccc21 (racemic)
227 to 229 °C | Cl.OC1CC(CN2CCC(c3ccc(F)cc3)CC2)CCc2ccccc21 (racemic)
223 to 225 °C | COc1cc(OC)cc(C2CCN(CC3CCc4ccccc4C(O)C3)CC2)c1.Cl (racemic)
245 to 246 °C | Cl.O[C@@H]1C[C@H](CN2CCC(c3ccccc3)CC2)CCc2c(-c3ccccc3)cccc21 (racemic)
239 to 240 °C | Cl.OC1CC(CN2CCC(c3ccccc3Cl)CC2)CCc2ccccc21 (racemic)
220 to 224 °C | Cl.O[C@@H]1C[C@H](CN2CCC(c3ccccc3)CC2)CCc2c(Br)cccc21 (racemic)

melting point | Structure (SMILES)
198 to 202 °C | Cl.OC1CC(CN2CCC(c3ccccc3)CC2)CCc2c(OCc3ccccc3)cccc21 (racemic)
241 to 243 °C | Cc1cccc2c1CC[C@@H](CN1CCC(c3cccc(F)c3)CC1)C[C@H]2O.Cl (racemic)
190 to 193 °C | Cl.Oc1cccc2c1CC[C@@H](CN1CCC(c3ccccc3)CC1)C[C@H]2O (racemic)
176 to 189 °C | COc1cccc2c1C(O)CC(CN1CCC(c3ccccc3)CC1)CC2.Cl (racemic)
222 to 225 °C | Cc1cc(C)c2c(c1)C(=O)CC(CN1CCC(c3ccccc3)CC1)CC2.Cl (racemic)
232 to 234 °C | COc1ccccc1C1CCN(CC2CCc3ccccc3C(=O)C2)CC1.Cl (racemic)
180 to 185 °C | Cl.O=C1CC(CN2CCC(c3ccccc3)CC2)CCc2ccc(Cl)cc21 (racemic)
216 to 218 °C | Cl.O=C1CC(CN2CCC(c3ccccc3O)CC2)CCc2ccccc21 (racemic)
> 250 °C | C1=CC(CN2CCC(c3ccccc3)CC2)CCc2ccccc21.Cl (racemic)
126 to 128 °C | C=CCO[C@@H]1C[C@H](CN2CCC(c3ccccc3)CC2)CCc2ccccc21.Cl (racemic)
> 250 °C | Cl.O[C@@H]1C[C@@H](CN2CCC(c3ccccc3)CC2)CCc2ccccc21 (racemic)
229 to 231 °C | COc1cccc2c1CC[C@@H](CN1CCC(c3ccccc3)CC1)C[C@H]2O.Cl (racemic)
> 250 °C | COc1cccc2c1CC[C@H](CN1CCC(c3ccccc3)CC1)C[C@H]2O.Cl (racemic)
239 to 240 °C | C1=CC(CN2CCC(c3ccccc3)CC2)Cc2ccccc21.Cl (racemic)
48 to 50 °C | O[C@@H]1C[C@H](CN2CCC(c3ccccc3)CC2)CCc2ccccc21 (racemic) [Example 9, (±)-cis-7-[(4-Phenylpiperidin-1-yl)methyl]-6,7,8,9-tetrahydro-5H-benzocyclohepten-5-ol]
46 to 48 °C | COc1cccc2c1CCC(CN1CCC(c3ccccc3)CC1)CC2O (racemic) [Example 10, (±)-1-Methoxy-7-[(4-phenylpiperidin-1-yl)methyl]-6,7,8,9-tetrahydro-5H-benzocyclohepten-5-ol]
45 to 48 °C | COc1ccc2c(c1)C(O)CC(CN1CCC(c3ccccc3)CC1)CC2 (racemic) [Example 11, (±)-3-Methoxy-7-[(4-phenylpiperidin-1-yl)methyl]-6,7,8,9-tetrahydro-5H-benzocyclohepten-5-ol]
52 to 55 °C | Cc1cc(C)c2c(c1)C(O)CC(CN1CCC(c3ccccc3)CC1)CC2 (racemic) [Example 20, (±)-1,3-dimethyl-7-[(4-phenylpiperidin-1-yl)methyl]-6,7,8,9-tetrahydro-5H-benzocyclohepten-5-ol]
72 to 74 °C | COc1ccccc1C1CCN(C[C@@H]2CCc3ccccc3[C@H](O)C2)CC1 (racemic) [Example 21, (±)-cis-7-[[4-(2-methoxyphenyl)piperidin-1-yl]methyl]-6,7,8,9-tetrahydro-5H-benzocyclohepten-5-ol]
52 to 55 °C | Cc1cccc2c1CC[C@@H](CN1CCC(c3ccccc3)CC1)C[C@H]2O (racemic) [Example 27, (±)-cis-1-methyl-7-[(4-phenylpiperidin-1-yl)methyl]-6,7,8,9-tetrahydro-5H-benzocyclohepten-5-ol]

— patent US6969724B2, “Compounds” (SmithKline Beecham-SpA, priority 1998, dated 2005)
